Reference: patent US9346809B2 (LEO PHARMA A/S, priority 2009, dated 2016)

Experiments:
Assay type in all cases: biochemical
[1] = molecular target: T1, JAK1 (aa 850-1154, catalytic domain, GST-tag) (Homo sapiens, UniProt P23458); assay: JAK kinase assay (HTRF, phosphorylation of TK substrate-biotin), JAK1; details: ATP at Km (7 μM); read-out: JAK1 kinase inhibitory activity (EC50 indicator)
T1 construct: JAK1 (aa 850-1154) and TYK2 (aa 871-1187) are expressed with an N-terminally fused GST-tag; GST (N); purchased Carna Biosciences, Inc; host or cells: baculovirus expression system
T1 sequence (P23458 850-1154): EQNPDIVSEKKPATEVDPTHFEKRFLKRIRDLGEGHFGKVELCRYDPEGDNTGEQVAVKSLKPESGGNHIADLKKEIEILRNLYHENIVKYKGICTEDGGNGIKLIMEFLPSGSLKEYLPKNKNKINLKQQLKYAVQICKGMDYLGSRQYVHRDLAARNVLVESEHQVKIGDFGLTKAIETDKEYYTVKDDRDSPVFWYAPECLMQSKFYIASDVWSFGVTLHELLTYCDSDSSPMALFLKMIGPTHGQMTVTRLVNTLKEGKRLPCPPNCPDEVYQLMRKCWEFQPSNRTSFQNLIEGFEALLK
Summary of the method: (§1)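 EC50 values come from HTRF detection of phospho-biotin-TK peptide (1 μM) after 20-30 min RT reactions in Hepes pH 7.0 buffer with 0.75% DMSO. ATP was at Km for each enzyme: 7 μM JAK1, 4 μM JAK2, 2 μM JAK3, 13 μM TYK2. SEB (50 nM) was added for JAK1 and TYK2 only.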

[2] = molecular target: T2, JAK3 (catalytic domain, His-tag) (Homo sapiens, UniProt P52333); assay: JAK kinase assay (HTRF, phosphorylation of TK substrate-biotin), JAK3; details: ATP at Km (2 μM); read-out: JAK3 kinase inhibitory activity (EC50 indicator)
T2 construct: All four purified enzymes contain only the catalytic domain; His (N); purchased Carna Biosciences, Inc; host or cells: baculovirus expression system
T2 sequence (P52333 822-1111 limits assumed): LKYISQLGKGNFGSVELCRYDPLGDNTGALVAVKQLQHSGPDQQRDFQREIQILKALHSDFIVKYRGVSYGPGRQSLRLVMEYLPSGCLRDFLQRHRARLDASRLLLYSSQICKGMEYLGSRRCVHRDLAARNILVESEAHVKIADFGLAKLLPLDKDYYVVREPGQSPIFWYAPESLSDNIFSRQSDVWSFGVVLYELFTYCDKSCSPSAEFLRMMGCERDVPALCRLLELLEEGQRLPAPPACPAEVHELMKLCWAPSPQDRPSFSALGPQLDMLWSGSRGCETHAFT
Summary of the method: as §1

[3] = molecular target: T3, JAK2 (catalytic domain, His-tag) (Homo sapiens, UniProt O60674); assay: JAK kinase assay (HTRF, phosphorylation of TK substrate-biotin), JAK2; details: ATP at Km (4 μM); read-out: JAK2 kinase inhibitory activity (EC50 indicator)
T3 construct: All four purified enzymes contain only the catalytic domain; His (N); purchased Carna Biosciences, Inc; host or cells: baculovirus expression system
T3 sequence (O60674 849-1124 limits assumed): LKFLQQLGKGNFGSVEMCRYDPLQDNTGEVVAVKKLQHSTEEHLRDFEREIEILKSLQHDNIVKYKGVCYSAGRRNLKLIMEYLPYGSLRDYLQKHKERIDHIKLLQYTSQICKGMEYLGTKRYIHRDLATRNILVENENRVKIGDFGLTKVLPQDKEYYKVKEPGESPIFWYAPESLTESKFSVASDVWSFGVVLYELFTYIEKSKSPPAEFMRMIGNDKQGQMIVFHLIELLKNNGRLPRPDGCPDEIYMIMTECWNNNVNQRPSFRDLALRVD
Summary of the method: as §1

[4] = molecular target: T4, TYK2 (aa 871-1187, catalytic domain, GST-tag) (Homo sapiens, UniProt P29597); assay: JAK kinase assay (HTRF, phosphorylation of TK substrate-biotin), TYK2; details: ATP at Km (13 μM); read-out: TYK2 kinase inhibitory activity (EC50 indicator)
T4 construct: JAK1 (aa 850-1154) and TYK2 (aa 871-1187) are expressed with an N-terminally fused GST-tag; GST (N); purchased Carna Biosciences, Inc; host or cells: baculovirus expression system
T4 sequence (P29597 871-1187): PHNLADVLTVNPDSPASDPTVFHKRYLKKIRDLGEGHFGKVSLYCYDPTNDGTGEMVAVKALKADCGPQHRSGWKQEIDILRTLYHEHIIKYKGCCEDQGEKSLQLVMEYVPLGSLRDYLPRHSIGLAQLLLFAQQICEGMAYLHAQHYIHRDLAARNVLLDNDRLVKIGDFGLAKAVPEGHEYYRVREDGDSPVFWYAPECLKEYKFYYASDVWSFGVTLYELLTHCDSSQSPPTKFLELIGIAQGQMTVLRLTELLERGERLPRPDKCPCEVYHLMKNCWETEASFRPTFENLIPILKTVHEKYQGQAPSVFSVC
Summary of the method: as §1

SMILES	EC50 [1]	EC50 [2]	EC50 [3]	EC50 [4]
COCCOCC(=O)Nc1nc(N2CCN(C(=O)Cc3ccc(C#N)cc3)C3(CC3)C2)c2cc[nH]c2n1 [Example 96, N-(4-{4-[2-(4-Cyano-phenyl)-acetyl]-4,7-diaza-spiro[2.5]oct-7-yl}-7H-pyrrolo[2,3-d]pyrimidin-2-yl)-2-(2-methoxy-ethoxy)-acetamide]	< 100 nM	100 to 500 nM	< 100 nM	> 500 nM
N#CCCN1CCC(C(=O)N2CCN(c3ncnc4[nH]ccc34)CC23CC3)CC1 [Example 97, 3-{4-[7-(7H-Pyrrolo[2,3-d]pyrimidin-4-yl)-4,7-diaza-spiro[2.5]octane-4-carbonyl]-piperidin-1-yl}-propionitrile]	< 100 nM	100 to 500 nM	100 to 500 nM	> 500 nM
N#Cc1ccc(CC(=O)N2CCN(c3nc(NC(=O)c4ccccc4)nc4[nH]ccc34)CC23CC3)cc1 [Example 98, N-(4-{4-[2-(4-Cyano-phenyl)-acetyl]-4,7-diaza-spiro[2.5]oct-7-yl}-7H-pyrrolo[2,3-d]pyrimidin-2-yl)-benzamide]	> 500 nM	> 500 nM	> 500 nM	> 500 nM
N#Cc1ccc(CC(=O)N2CCN(c3nc(NC(=O)c4ccno4)nc4[nH]ccc34)CC23CC3)cc1 [Example 99, Isoxazole-5-carboxylic acid (4-{4-[2-(4-cyano-phenyl)-acetyl]-4,7-diaza-spiro[2.5]oct-7-yl}-7H-pyrrolo[2,3-d]pyrimidin-2-yl)-amide]	100 to 500 nM	> 500 nM	< 100 nM	> 500 nM
CC(=O)OCC(=O)Nc1nc(N2CCN(C(=O)Cc3ccc(C#N)cc3)C3(CC3)C2)c2cc[nH]c2n1 [Example 100, Acetic acid (4-{4-[2-(4-cyano-phenyl)-acetyl]-4,7-diaza-spiro[2.5]oct-7-yl}-7H-pyrrolo[2,3-d]pyrimidin-2-ylcarbamoyl)-methyl ester]	< 100 nM	< 100 nM	< 100 nM	100 to 500 nM
N#CC1(C(=O)N2CCN(c3ncnc4[nH]ccc34)CC23CC3)CCCC1 [Example 114, 1-[7-(7H-Pyrrolo[2,3-d]pyrimidin-4-yl)-4,7-diaza-spiro[2.5]octane-4-carbonyl]-cyclopentanecarbonitrile]	100 to 500 nM	100 to 500 nM	< 100 nM	> 500 nM
N#Cc1ccc(CC(=O)N2CCN(c3ccnc4[nH]ccc34)CC23CC3)cc1 [Example 115, 4-{2-Oxo-2-[7-(1H-pyrrolo[2,3-b]pyridin-4-yl)-4,7-diaza-spiro[2.5]oct-4-yl]-ethyl}-benzonitrile]	< 100 nM	< 100 nM	< 100 nM	> 500 nM
N#CCCC(=O)N1CCN(c2ccnc3[nH]ccc23)CC12CC2 [Example 116, 4-Oxo-4-[7-(1H-pyrrolo[2,3-b]pyridin-4-yl)-4,7-diaza-spiro[2.5]oct-4-yl]-butyronitrile]	100 to 500 nM	100 to 500 nM	100 to 500 nM	> 500 nM
N#CC1(C(=O)N2CCN(c3ccnc4[nH]ccc34)CC23CC3)CC1 [Example 117, 1-[7-(1H-Pyrrolo[2,3-b]pyridin-4-yl)-4,7-diaza-spiro[2.5]octane-4-carbonyl]-cyclopropanecarbonitrile]	100 to 500 nM	100 to 500 nM	100 to 500 nM	> 500 nM
Cc1c[nH]c2ncnc(N3CCN(C(=O)c4ccc(C#N)cc4)C4(CC4)C3)c12 [Example 118, 4-[7-(5-Methyl-7H-pyrrolo[2,3-d]pyrimidin-4-yl)-4,7-diaza-spiro[2.5]octane-4-carbonyl]-benzonitrile]	> 500 nM	> 500 nM	> 500 nM	> 500 nM

Further lines, results first:

EC50 [1]	EC50 [2]	EC50 [3]	EC50 [4]	SMILES
100 to 500 nM	100 to 500 nM	100 to 500 nM	> 500 nM	CS(=O)(=O)c1cccc(CC(=O)N2CCN(c3ncnc4[nH]ccc34)CC23CC3)c1 [Example 101, 2-(3-Methanesulfonyl-phenyl)-1-[7-(7H-pyrrolo[2,3-d]pyrimidin-4-yl)-4,7-diaza-spiro[2.5]oct-4-yl]-ethanone]
< 100 nM	< 100 nM	< 100 nM	100 to 500 nM	NS(=O)(=O)c1cc(OCC(=O)N2CCN(c3ncnc4[nH]ccc34)CC23CC3)ccc1Cl [Example 102, 2-Chloro-5-{2-oxo-2-[7-(7H-pyrrolo[2,3-d]pyrimidin-4-yl)-4,7-diaza-spiro[2.5]oct-4-yl]-ethoxy}-benzenesulfonamide]
< 100 nM	< 100 nM	< 100 nM	< 100 nM	NS(=O)(=O)c1ccc(C(=O)N2CCN(c3ncnc4[nH]ccc34)CC23CC3)cc1Cl [Example 103, 2-Chloro-4-[7-(7H-pyrrolo[2,3-d]pyrimidin-4-yl)-4,7-diaza-spiro[2.5]octane-4-carbonyl]-benzenesulfonamide]
< 100 nM	< 100 nM	< 100 nM	< 100 nM	CNS(=O)(=O)c1ccc(C(=O)N2CCN(c3ncnc4[nH]ccc34)CC23CC3)cc1 [Example 104, N-Methyl-4-[7-(7H-pyrrolo[2,3-d]pyrimidin-4-yl)-4,7-diaza-spiro[2.5]octane-4-carbonyl]-benzenesulfonamide]
100 to 500 nM	100 to 500 nM	< 100 nM	> 500 nM	O=C(C1CCc2ccccc21)N1CCN(c2ncnc3[nH]ccc23)CC12CC2 (centres unmarked) [Example 105, Indan-1-yl-[7-(7H-pyrrolo[2,3-d]pyrimidin-4-yl)-4,7-diaza-spiro[2.5]oct-4-yl]-methanone]
< 100 nM	100 to 500 nM	< 100 nM	100 to 500 nM	O=C(c1ccc2sccc2c1)N1CCN(c2ncnc3[nH]ccc23)CC12CC2 [Example 106, Benzo[b]thiophen-5-yl-[7-(7H-pyrrolo[2,3-d]pyrimidin-4-yl)-4,7-diaza-spiro[2.5]oct-4-yl]-methanone]
< 100 nM	< 100 nM	< 100 nM	> 500 nM	CS(=O)(=O)c1ccc(CC(=O)N2CCN(c3ncnc4[nH]ccc34)CC23CC3)cc1 [Example 107, 2-(4-Methanesulfonyl-phenyl)-1-[7-(7H-pyrrolo[2,3-d]pyrimidin-4-yl)-4,7-diaza-spiro[2.5]oct-4-yl]-ethanone]
< 100 nM	< 100 nM	< 100 nM	> 500 nM	COc1cc(C(=O)N2[C@@H]3CC[C@H]2CN(c2ncnc4[nH]ccc24)C3)cs1 [Example 108, (5-Methoxy-thiophen-3-yl)-[3-(7H-pyrrolo[2,3-d]pyrimidin-4-yl)-3,8-diaza-bicyclo[3.2.1]oct-8-yl]-methanone]
< 100 nM	100 to 500 nM	< 100 nM	> 500 nM	O=C(Cc1cccs1)N1[C@@H]2CC[C@H]1CN(c1ncnc3[nH]ccc13)C2 [Example 109, 1-[3-(7H-Pyrrolo[2,3-d]pyrimidin-4-yl)-3,8-diaza-bicyclo[3.2.1]oct-8-yl]-2-thiophen-2-yl-ethanone]
< 100 nM	100 to 500 nM	100 to 500 nM	> 500 nM	Cc1cc2[nH]c(C(=O)N3[C@@H]4CC[C@H]3CN(c3ncnc5[nH]ccc35)C4)cc2cc1F [Example 110, (5-Fluoro-6-methyl-1H-indol-2-yl)-[3-(7H-pyrrolo[2,3-d]pyrimidin-4-yl)-3,8-diaza-bicyclo[3.2.1]oct-8-yl]-methanone]
< 100 nM	100 to 500 nM	< 100 nM	> 500 nM	CC(=O)c1cc(C(=O)N2[C@@H]3CC[C@H]2CN(c2ncnc4[nH]ccc24)C3)cs1 [Example 112, 1-{4-[3-(7H-Pyrrolo[2,3-d]pyrimidin-4-yl)-3,8-diaza-bicyclo[3.2.1]octane-8-carbonyl]-thiophen-2-yl}-ethanone]
100 to 500 nM	100 to 500 nM	< 100 nM	> 500 nM	N#Cc1ccccc1CC(=O)N1CCN(c2ncnc3[nH]ccc23)CC12CC2 [Example 113, 2-{2-Oxo-2-[7-(7H-pyrrolo[2,3-d]pyrimidin-4-yl)-4,7-diaza-spiro[2.5]oct-4-yl]-ethyl}-benzonitrile]
> 500 nM	> 500 nM	> 500 nM	> 500 nM	Cc1c[nH]c2ncnc(N3CCN(C(=O)c4cccc(C#N)c4)C4(CC4)C3)c12 [Example 119, 3-[7-(5-Methyl-7H-pyrrolo[2,3-d]pyrimidin-4-yl)-4,7-diaza-spiro[2.5]octane-4-carbonyl]-benzonitrile]
